# Activity calls are given as the source filed them.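 The calls were made as follows: active = growth-inhibition EC50 no more than tenfold above the top tested dose; inconclusive = flat fit between 30% and 70% inhibition, or unreliable fit; inactive = EC50 more than tenfold above the top tested dose.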
# Test system: E. coli NEB5alpha growth, BacTiter-Glo luminescence, 4 h
# Assay: Escherichia coli growth inhibition, dose response, counter-screen for MEX-5/POS-1 RNA-binding inhibitor project, luminescence, NEB5alpha (AID 1959);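 also: pUC19-transformed ampicillin-resistant cells grown in LB with ampicillin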
row,SMILES,EC50
1,CC1(OC(=O)c2ccc(Cl)nc2)C(=O)C=C2C=C(C3CC3)OC=C2C1=O (configuration not stated),> 11 µM (inactive)
2,COc1cc2c3nnc(-c4ccc(F)cc4)c-3cn(Cc3ccc(C)cc3)c2cc1OC,> 11 µM (inactive)
3,COc1cccc(C(=O)NNc2nc(C)cc(C)n2)c1,> 11 µM (inactive)
4,O=C(O)c1cccc(-n2cccc2/C=C2\NC(=O)N(Cc3ccc(F)cc3)C2=O)c1,> 11 µM (inactive)
5,CN1C(=O)C(=Cc2sc(=O)n(-c3ccccc3)c2N2CCCCC2)C(=O)N(C)C1=O,> 11 µM (inactive)
6,COCCNC(=O)CCC(=O)NNc1nc2ccccc2c2nc(C)nn12,> 11 µM (inactive)
7,O=C1c2cccc3c(N4CCCCC4)ccc(c23)C(=O)N1c1ccccn1,> 11 µM (inactive)
8,N#CC1=C(N)C(C#N)(C#N)C(c2cccnc2)C2CCCC=C12 (configuration not stated),> 11 µM (inactive)
9,O=c1[nH]c(=O)n(-c2ccc(F)cc2)c(O)c1/C=C1\C=Nc2ccccc21,> 11 µM (inactive)
10,Cc1ccc(S(=O)(=O)CCSc2nc(C)cc(C(F)(F)F)c2C#N)cc1,> 11 µM (inactive)
11,O=C(NCc1ccccn1)C1Nc2ccc(C(F)(F)F)cc2C2C=CCC12 (configuration not stated),> 11 µM (inactive)
12,O=S(=O)(Nc1ccc(O)c2ccccc12)c1ccc(Br)cc1,> 11 µM (inactive)
13,N#CC1=C(N)C(C#N)(C#N)[C@H](c2ccsc2)[C@H]2COCC=C12,> 11 µM (inactive)
14,O=C(NNC(=O)c1cc(Cl)ccc1[N+](=O)[O-])c1csc(N2CCOCC2)n1,> 11 µM (inactive)
15,CN(C)c1ccc(/C=C/C(=O)c2cccc(Br)c2)cc1,> 11 µM (inactive)
16,Cc1cccc2sc(NNC(=O)c3cc(=O)c4ccccc4o3)nc12,> 11 µM (inactive)
17,Cc1ccc(NC(=O)CCS(=O)(=O)c2cc3c(cc2Cl)NC(=O)CO3)cc1,> 11 µM (inactive)
18,O=C(Nc1ccccc1)NC1(C(=O)NCc2ccc3c(c2)OCO3)CCCCC1,> 11 µM (inactive)
19,Cc1cc(C)cc(-n2c(O)c(C=Nc3ccc(N4CCOCC4)cc3)c(=O)[nH]c2=S)c1,> 11 µM (inactive)
20,Cn1ncc2c(NNC(=O)c3ccc(O)cc3)ncnc21,> 11 µM (inactive)
21,COc1ccc(OC)c(N=Cc2c(O)c3ccccc3oc2=O)c1,> 11 µM (inactive)
22,Cn1nc(C(F)(F)F)cc1-c1ccc(/C=C(\C#N)C(=O)c2ccccc2)s1,> 11 µM (inactive)
23,O=C(N/N=C/c1c(O)ccc2ccccc12)Nc1ccccc1,> 11 µM (inactive)
24,CCC(=O)OC1(C)C(=O)C=C2C=C(CCCC(=O)OC)OC=C2C1=O (configuration not stated),> 11 µM (inactive)
25,O=C(N/N=C/c1c(O)n(CCc2ccccc2)c(=O)[nH]c1=O)c1ccccc1,> 11 µM (inactive)

row,SMILES,EC50
1,C=CCN=c1scc(-c2ccco2)n1/N=C/c1ccc(O)c(O)c1O,> 11 µM (inactive)
2,CC1=NN(c2cccc(C(=O)O)c2)C(=O)/C1=C\C=C\c1ccco1,> 11 µM (inactive)
3,CN(C)c1cccc2c1c(NS(=O)(=O)c1cn(C)cn1)nn2C,> 11 µM (inactive)
4,CSCC(C)N1CCC(N2CCC(C(=O)NCc3ccccn3)CC2)CC1 (configuration not stated),> 11 µM (inactive)
5,Cc1nc(S/C(=C/c2ccc(-c3cc(Cl)ccc3C)o2)C(=O)O)n[nH]1,> 11 µM (inactive)
6,O=C(N/N=C/c1ccc(O)c(O)c1)N/N=C/c1ccc(O)c(O)c1,> 11 µM (inactive)
7,Cc1[nH][nH]c(=O)c1/C=N/N1CCOCC1,> 11 µM (inactive)
8,Fc1ccc(C2=CC(c3ccco3)n3ncnc3N2)cc1 (configuration not stated),> 11 µM (inactive)
9,CC(=O)NCCNc1ccc([N+](=O)[O-])cc1C#N,> 11 µM (inactive)
10,CCOCCCn1c(=NC(=O)c2cccs2)c(C#N)cc2c(=O)n3ccccc3nc21,> 11 µM (inactive)
11,O=C(O)c1ccc(-n2cccc2)cc1O,> 11 µM (inactive)
12,N#Cc1cc(NC(=O)c2ccc(F)cc2)c(=O)n2c1[nH]c1ccccc12,> 11 µM (inactive)
13,COC1(OC)N=C(N)C2(C#N)C(c3ccc4c(c3)OCO4)C12C#N (configuration not stated),> 11 µM (inactive)
14,Cc1cc(/C=C(/C#N)c2nc3ccccc3[nH]2)c(C)n1-c1cc(C(=O)O)cc(C(=O)O)c1,> 11 µM (inactive)
15,Oc1ccc2ccccc2c1C=Nc1ccc(N2CCOCC2)cc1,> 11 µM (inactive)
16,CCc1ccc(C(=O)NNC(=O)c2ccc(=O)n(C)n2)cc1,> 11 µM (inactive)
17,O=C(CCSc1nc2ccccc2s1)N/N=C/c1c(O)ccc2ccccc12,> 11 µM (inactive)
18,O=C(NNC(=O)c1cnccn1)c1ccc(Cl)cc1,> 11 µM (inactive)
19,CCCCOC(=O)CSC1=C(C#N)C(c2ccccc2OCC)C(C#N)C(=O)N1 (configuration not stated),> 11 µM (inactive)
20,CN(C)CCCN=Cc1c(O)n(CCc2ccc(F)cc2)c(=O)[nH]c1=O,> 11 µM (inactive)
21,O=c1[nH]c(=O)n(CCc2ccc(F)cc2)c(O)c1C=NCCCn1ccnc1,> 11 µM (inactive)
22,N=c1c(C(=O)NC2CCCCC2)cc2c(=O)n3ccccc3nc2n1Cc1cccnc1,> 11 µM (inactive)
23,O=C(c1coc(=O)c(Br)c1)N1CCCc2ccccc21,> 11 µM (inactive)
24,O=c1[nH]c(=O)n(-c2ccc(Cl)cc2)c(O)c1C=NCCN1CCCCC1,> 11 µM (inactive)
25,Cc1cccc2cc3c(N)c(C(=O)Nc4ccc(N5CCOCC5)cc4)sc3nc12,> 11 µM (inactive)

row,SMILES,EC50
1,CCOC(=O)C1=C(C)OC(N)=C(C#N)C1c1ccc(O)c(OC)c1 (configuration not stated),> 11 µM (inactive)
2,CCn1cc(C=C2C(=O)NC(=O)NC2=O)c2ccccc21,> 11 µM (inactive)
3,CC(C)COc1ccc(/C=C2/Sc3ccccc3C2=O)cc1,> 11 µM (inactive)
4,COC/C=C/C1=CC2=CC(=O)C(C)(OC(=O)C3CCCC3)C(=O)C2=CO1 (configuration not stated),> 11 µM (inactive)
5,Cc1onc(-c2c(F)cccc2Cl)c1C(=O)N1CCCc2ccccc21,> 11 µM (inactive)
6,CCN1CCN(Cc2c(O)ccc3c2O/C(=C\c2ccc(C)cc2)C3=O)CC1,> 11 µM (inactive)
7,COc1cc(/C=C2/N=C(c3ccccc3)OC2=O)c(F)cc1OCc1ccccc1,> 11 µM (inactive)
8,COc1ccc(N2C(=O)C(Cl)=C(Nc3ccccc3O)C2=O)cc1,> 11 µM (inactive)
9,Cc1cc(C)c(-n2c(O)c(/C=N/NC(=O)c3ccncc3)c(=O)[nH]c2=O)c(C)c1,> 11 µM (inactive)
10,O=C(O)c1ccc(-n2cccc2/C=C2/SC(=O)N(CC(=O)N3CCCC3)C2=O)cc1,> 11 µM (inactive)
11,Cc1ccccc1NS(=O)(=O)c1cc(C(=O)N2CCCC2)ccc1C,> 11 µM (inactive)
12,CCOc1cc(N2CCOCC2)c(OCC)cc1NC(C)C(=O)N1CCN(CC)CC1 (configuration not stated),> 11 µM (inactive)
13,CN(C)Cc1cc(O)c(CN(C)C)cc1O,> 11 µM (inactive)
14,Cc1[nH]c2ccccc2c1/C=N/NC(=S)NC(C)C,> 11 µM (inactive)
15,COc1ccc2c(c1)S/C(=C\C(=O)c1ccncc1)N2C,> 11 µM (inactive)
16,Cc1sc(-c2ccccn2)nc1OC(=O)c1cccc(Cl)c1Cl,> 11 µM (inactive)
17,Cn1c(O)c(/C=C2/C=CC=N2)c(=O)[nH]c1=O,> 11 µM (inactive)
18,CCCC(C)NC(=O)c1ccc(C2SCC(=O)N2Cc2ccco2)cc1 (configuration not stated),> 11 µM (inactive)
19,CCCCC1=CC2=CC(=O)C(C)(OC(=O)CCC(=O)OC)C(=O)C2=CO1 (configuration not stated),> 11 µM (inactive)
20,N=C1C(c2nc3ccccc3[nH]2)=C(O)CN1c1ccc(CC(=O)O)cc1,> 11 µM (inactive)
21,O=C(N/N=C/c1ccc(-c2cccc([N+](=O)[O-])c2)o1)c1ccc([N+](=O)[O-])cc1,> 11 µM (inactive)
22,Cc1ccc(C)c(N(C)C(=O)c2coc(=O)c3ccccc23)c1,> 11 µM (inactive)
23,CN=C1S/C(=C\c2ccc(N3CCCC3)c(F)c2)C(=O)N1C,> 11 µM (inactive)
24,CCN(CC)CCN=Cc1c(O)n(Cc2ccccc2)c(=O)[nH]c1=O,> 11 µM (inactive)
25,CCCSc1nnc(NC(=O)Nc2ccccc2)s1,> 11 µM (inactive)

row,SMILES,EC50
1,Oc1ccc(-c2cnns2)c(O)c1,> 11 µM (inactive)
2,CCCOc1ccc(/C=c2\sc3nc(-c4ccco4)nn3c2=O)cc1OCC,> 11 µM (inactive)
3,Oc1cc2c(cc1O)C(c1ccccc1)CNCC2 (configuration not stated),> 11 µM (inactive)
4,O=C(O)CSc1cc(NS(=O)(=O)c2ccc(Br)cc2)c2ccccc2c1O,> 11 µM (inactive)
5,COc1ccc(C(=O)Nc2nc(-c3ccc([N+](=O)[O-])cc3)c(-c3ccccc3)s2)cc1,> 11 µM (inactive)
6,C=CCN1C(=O)NC(=O)/C(=C/C=C/c2ccccc2)C1=O,> 11 µM (inactive)
7,CCN1C=CC2=C(C#N)C(N)C(C#N)(C#N)C(c3ccccc3C(F)(F)F)C2C1 (configuration not stated),> 11 µM (inactive)
8,O=C1CSC(=S)N1N1C(=O)c2cccc([N+](=O)[O-])c2C1=O,> 11 µM (inactive)
9,CCCCN1C(=O)/C(=C/C=C2\Oc3ccccc3N2CC)SC1=S,> 11 µM (inactive)
10,CC1=C(C(=O)OCc2ccccc2)C(c2ccccc2[N+](=O)[O-])NC(=O)N1C (configuration not stated),> 11 µM (inactive)
11,O=C(N/N=C\c1c(O)ccc2ccccc12)c1cncc(Br)c1,> 11 µM (inactive)
12,NS(=O)(=O)c1ccc(N=Nc2c[nH]c(=O)c(O)c2)cc1,> 11 µM (inactive)
13,Cc1nnc(N2C(=O)C(O)=C(C(=O)c3ccco3)C2c2ccc(C(C)(C)C)cc2)s1 (configuration not stated),> 11 µM (inactive)
14,Cn1c(=O)c(N)c2c3c(c(Br)ccc31)C(=O)c1ccccc1-2,> 11 µM (inactive)
15,COc1ccc(/C=C/C(=O)c2c(O)n(CCC3=CCCCC3)c(=O)[nH]c2=O)cc1OC,> 11 µM (inactive)
16,Cc1ccc2[nH]c(=O)c(CN(CCO)Cc3nnnn3CCc3ccccc3)cc2c1,> 11 µM (inactive)
17,Cc1ccc2oc(=O)c(/C=C(\O)c3cccs3)nc2c1,> 11 µM (inactive)
18,CCN(CC)C(=O)c1ccc2c(c1)C1C=CCC1C(C(=O)O)N2 (configuration not stated),> 11 µM (inactive)
19,O=C(CN1C(=O)C2CC=C(Cl)CC2C1=O)NCc1ccccc1 (configuration not stated),> 11 µM (inactive)
20,O=S(=O)(c1ccccc1)N1CCC(O)(CSc2ccc(Cl)cc2)CC1,> 11 µM (inactive)
21,CC(=O)c1ccc2c(c1)C1C=CCC1C(c1ccncc1)N2 (configuration not stated),> 11 µM (inactive)
22,CCOc1ccc(-n2c(O)c(/C=N/c3ccnn3Cc3ccncc3)c3ccccc3c2=O)cc1,> 11 µM (inactive)

# — PubChem BioAssay AID1959 (Broad Institute, 2009)
